Tested on: Anti haptocorrin antibodies (ELISA)
Test: Cross-reactivity of the haptocorrin ELISA towards other cobalamin binding proteins
Set-up: species or system rabbit
Settings: 60 nmol/L in the assay mixture
Protocol: Antibodies. Anti haptocorrin was produced by DakoCytomation A/S, Denmark by immunising rabbits with 200 μg pure haptocorrin produced as previously described (12) and deglycosylated as described above. The gamma globulin fraction was pre-pared (13) from serum obtained after 7 immunisations.
ELISA. The principle of the ELISA assay used was an immobilised capture antibody (0.1 ug gamma globulin/well, rabbit nr F7773) catching the analyte and a biotinylated detection antibody (gamma globulin 3 ug/L, rabbit nr 7772) visualised by avidin/Horse Radish Peroxidase (HRP). Colour development by addition of 3,3′,5,5′-tetramethyl-benzidin was proportional to the concentration of analyte. The assay procedure was as previously described for transcobalamin (14, 15). In brief, calibrator, sample or control (100 μL, final dilution 1:30) was incubated for 1 hour at room temperature prior to washing and incubation for 30 min with the biotinylated detection antibody. The attached biotinylated antibody was detected employing avidin/HRP and colour development was determined by measuring the absorbance at 420 nm and correcting for the absorbance at 620 nm. The calibrator employed was deglycosylated pure human haptocorrin. All samples were run in true duplicates, where deglycosylation was performed on two independent samples.
Samples. […]

In the case of “intrinsic factor: cobalamin binding protein; pure IF dissolved in phosphate buffer 0.1 M containing albumin 0.1%”, the “cross-reactivity in haptocorrin ELISA” value is reported as “No cross-reactivity”.
